Here are results for 2 compounds from ChEMBL document CHEMBL1131362, “Synthesis and anticholinesterase activity of huperzine A analogues containing phenol and catechol replacements for the pyridone ring” (Bioorg Med Chem Lett, 1998).

Activity calls are given as the source filed them. The rule behind the calls is not given here.

The target in experiment [1] is T1, Acetylcholinesterase (Bos taurus) (UniProt P23795).
T1 sequence (whole entry): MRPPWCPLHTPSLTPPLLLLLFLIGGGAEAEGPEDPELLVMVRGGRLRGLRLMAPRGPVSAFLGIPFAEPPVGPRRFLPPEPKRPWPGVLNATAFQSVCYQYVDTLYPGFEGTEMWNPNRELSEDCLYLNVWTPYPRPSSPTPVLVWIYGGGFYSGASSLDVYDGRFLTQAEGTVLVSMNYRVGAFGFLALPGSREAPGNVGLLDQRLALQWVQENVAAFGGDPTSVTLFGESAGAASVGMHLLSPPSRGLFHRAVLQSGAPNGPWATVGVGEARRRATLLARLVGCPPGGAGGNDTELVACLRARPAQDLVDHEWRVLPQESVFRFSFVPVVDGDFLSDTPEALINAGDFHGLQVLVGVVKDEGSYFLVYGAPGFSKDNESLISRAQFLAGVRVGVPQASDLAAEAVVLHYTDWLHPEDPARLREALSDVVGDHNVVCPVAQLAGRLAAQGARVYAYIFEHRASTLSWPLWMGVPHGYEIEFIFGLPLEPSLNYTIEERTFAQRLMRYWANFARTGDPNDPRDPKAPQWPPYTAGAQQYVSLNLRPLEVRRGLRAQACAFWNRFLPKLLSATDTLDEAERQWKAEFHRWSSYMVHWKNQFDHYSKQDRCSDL
Put plainly: Compound was tested for acetylcholinesterase inhibition at concentration uM; No Inhibition.

The target of experiment [2] is T1, Acetylcholinesterase (Bos taurus). Put plainly: Compound was tested for acetylcholinesterase inhibitory activity at concentration uM; Inactive.

For `C/C=C1\C2C=C(C)C[C@]1(N)c1ccc(O)c(O)c1C2`, the inhibition result in experiment [1] was “inactive”.
On to `C/C=C1\C2C=C(C)C[C@]1(N)c1ccc(O)cc1C2`, for which the inhibition result in experiment [2] was “inactive”.
